Measured values: patent US20150150159A1, “METHOD FOR CONTROLLING FUNGAL DISEASES IN MUSHROOM PRODUCTION” (DSM IP ASSETS B.V., priority 2012, published 2015)

Tested on: Trichoderma harzianum
Assay: In vitro antifungal activity assay in 96-well microtiter plates (mould growth reduction, Colby synergy)
Type: cell-based
Protocol: The following compositions are tested: • Control (no active ingredient), • 1.25 ppm natamycin (DSM Food Specialties, Delft, The Netherlands), • 0.5, 1.0, 1.25 or 1.5 ppm thiabendazole, • 1.25 ppm natamycin+0.5 ppm thiabendazole, • 1.25 ppm natamycin+1.0 ppm thiabendazole, • 1.25 ppm natamycin+1.25 ppm thiabendazole, • 1.25 ppm natamycin+1.5 ppm thiabendazole. […] Subsequently, 100 μl of a Trichoderma harzianum suspension prepared in PCB medium is used to inoculate each well with 5.0×10^3 spores/ml. […] After incubation of the microtiter plates for 3, 5, 10 and 17 days at 25° C., the in vitro antifungal activity (%) of the individual active ingredients was assessed by calculating the reduction in mould growth observed in the presence of the active ingredient in comparison to the mould growth observed in the absence of the active ingredient. The expected antifungal activity (E in %) of the active ingredient combination was calculated according to the Colby equation (Colby, 1967): E=X+Y−[(X·Y)/100] wherein X and Y are the observed antifungal activities (in %) of the individual active ingredients X and Y, respectively. If the observed antifungal activity (O in %) of the combination exceeds the expected antifungal activity (E in %) of the combination and the resulting synergy factor O/E is thus >1.0, the combined application of the active ingredients leads to a synergistic antifungal effect.

Measured: Observed antifungal activity O (%)

C[C@@H]1C/C=C/C=C/C=C/C=C/[C@H](O[C@@H]2O[C@H](C)[C@@H](O)[C@H](N)[C@@H]2O)C[C@@H]2O[C@](O)(C[C@@H](O)C[C@H]3O[C@@H]3/C=C/C(=O)O1)C[C@H](O)[C@H]2C(=O)O [Natamycin, natamycin]
0%: Natamycin 1.25 ppm, 3 days incubation at 25° C. | Natamycin 1.25 ppm, 5 days incubation at 25° C. | Natamycin 1.25 ppm, 10 days incubation at 25° C. | Natamycin 1.25 ppm, 17 days incubation at 25° C.

c1ccc2[nH]c(-c3cscn3)nc2c1 [Thiabendazole, 4-(1H-1,3-benzodiazol-2-yl)-1,3-thiazole]
0%: Thiabendazole 0.5 ppm, 3 days incubation at 25° C. | Thiabendazole 1.0 ppm, 5 days incubation at 25° C. | Thiabendazole 1.25 ppm, 5 days incubation at 25° C. | Thiabendazole 1.25 ppm, 10 days incubation at 25° C. | Thiabendazole 1.5 ppm, 10 days incubation at 25° C. | Thiabendazole 1.5 ppm, 17 days incubation at 25° C.
